“And” between values parts separate entries of the source, which are not always exact repeats. Identical values can stand only once.
Legend:
β1-AR [1] = target: T1, β1-AR (Homo sapiens, UniProt P08588); experiment: CRE-luciferase production in CHO-β1-CRE-luciferase cells; settings: for % isop: response compared to 10 μM isoprenaline; for Log EC50: agonist action; for Log ratio of affinities: catecholamine vs secondary conformation; for Log KD Secondary Conformation, CGP12177 as agonist: rightward shift of CGP12177 response
β1-AR [2] = target: T1, β1-AR; experiment: Summary of pharmacological outcome at the β1-AR (CHO-β1-luciferase or CHO-β1-SPAP cells); settings: for Pharmacological Outcome: CCE/IBS conformation / Pharmacological Outcome: SCE conformation: β1-AR, summary; for Evidence of SCE activation: evidence A–D as outlined in the Introduction, CHO-β1-luciferase or CHO-β1-SPAP cells
β1-AR [3] = target: T1, β1-AR; experiment: CRE-SPAP production in CHO-β1-CRE-SPAP cells; type: cell-based; design: expressed in transfected cells; host or cells: CHO-K1 clonal lines (CHO-β1-CRE-luc, CHO-β1-CRE-SPAP); settings: for % Isoprenaline: response compared with 10 μM isoprenaline; for EC50 / Log EC50: agonist action; for EC50: read-out: Log EC50 (converted)
Procedure: (§1) Many agonist responses were best described by a one-site sigmoidal agonist concentration-response curve.
(§2) In experiments where 3 different fixed concentrations of the same antagonist were used, Schild plots were constructed using equation (6):(6) logDR-1=logB-logKD
(§3) These points were then fitted to a straight line. A slope of 1 then indicates competitive antagonism.[39]
(§4) Where clear partial agonism was present (eg, Fig. 3D), the partial agonist affinity was calculated by the method of Stephenson[40] using equation 7.
(§5) (7) KDpartialagonist=Y×P/1-YwhereY=A2-A1/A3 where [P] is the concentration of the partial agonist, [A1] is the concentration of the agonist at the point where the fixed partial agonist causes the same response, [A2] is the concentration of agonist causing a given response above that achieved by the partial agonist, and [A3] is the concentration of the agonist, in the presence of the partial agonist, causing the same stimulation as [A2].
where N is the percentage of site 1, [A] is the concentration of agonist, and EC1_50 and EC2_50 are the respective EC50 values for the 2 agonist sites.

human β2-AR [4] = target: T2, human β2-AR (Homo sapiens, UniProt P07550); experiment: CRE-SPAP production in CHO-β2-CRE-SPAP cells; type: cell-based; design: expressed in transfected cells; host or cells: CHO-K1 clonal line (CHO-β2-CRE-SPAP); settings: for % Isoprenaline: response compared with 10 μM isoprenaline; for EC50 / Log EC50: agonist action; for Log ratio of affinities: cimaterol vs CGP12177 as agonist
Procedure: as §1, §2, §3, §4, §5

β1-AR [5] = target: T1, β1-AR; experiment: 3H-CGP12177 whole-cell binding in CHO-β1-CRE-SPAP cells
human β2-AR [6] = target: T2, human β2-AR; experiment: 3H-CGP12177 whole-cell binding in CHO-β2-CRE-SPAP cells; settings: for β2-Selectivity: β2 over β1 affinity from whole-cell binding
[7] = CHO-β1-CRE-luciferase cells, given as log EC50 (negative)
[8] = Log KD (CGP12177 as Agonist), rightward shift of CGP12177 response
[9] = Log KD (Cimaterol as Agonist), rightward shift of cimaterol response, Gaddum, or Stephenson (a)
[10] = Log EC50, agonist action, CHO-β1-CRE-luciferase cells, given as log EC50 (negative)
[11] = CHO-β1-CRE-luciferase cells, Gaddum, or Stephenson for partial agonists (a)
[12] = rightward shift of CGP12177 response
[13] = rightward shift of CGP12177 response, CHO-β1-CRE-SPAP cells
[14] = rightward shift of cimaterol response, CHO-β1-CRE-SPAP cells, Gaddum, or Stephenson (a)

T1 sequence (P08588 whole entry): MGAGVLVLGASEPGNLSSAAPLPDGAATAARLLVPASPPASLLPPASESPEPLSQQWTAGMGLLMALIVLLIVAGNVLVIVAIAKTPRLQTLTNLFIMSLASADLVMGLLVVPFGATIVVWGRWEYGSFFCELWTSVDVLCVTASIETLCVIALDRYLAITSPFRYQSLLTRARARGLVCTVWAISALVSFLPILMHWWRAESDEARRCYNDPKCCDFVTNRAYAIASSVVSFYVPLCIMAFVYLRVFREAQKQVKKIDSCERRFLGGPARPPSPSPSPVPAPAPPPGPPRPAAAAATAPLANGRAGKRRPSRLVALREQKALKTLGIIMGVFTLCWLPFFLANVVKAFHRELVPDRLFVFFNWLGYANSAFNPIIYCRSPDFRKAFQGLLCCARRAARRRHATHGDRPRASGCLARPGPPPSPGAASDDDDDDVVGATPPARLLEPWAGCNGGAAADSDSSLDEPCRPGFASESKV
T2 sequence (P07550 whole entry): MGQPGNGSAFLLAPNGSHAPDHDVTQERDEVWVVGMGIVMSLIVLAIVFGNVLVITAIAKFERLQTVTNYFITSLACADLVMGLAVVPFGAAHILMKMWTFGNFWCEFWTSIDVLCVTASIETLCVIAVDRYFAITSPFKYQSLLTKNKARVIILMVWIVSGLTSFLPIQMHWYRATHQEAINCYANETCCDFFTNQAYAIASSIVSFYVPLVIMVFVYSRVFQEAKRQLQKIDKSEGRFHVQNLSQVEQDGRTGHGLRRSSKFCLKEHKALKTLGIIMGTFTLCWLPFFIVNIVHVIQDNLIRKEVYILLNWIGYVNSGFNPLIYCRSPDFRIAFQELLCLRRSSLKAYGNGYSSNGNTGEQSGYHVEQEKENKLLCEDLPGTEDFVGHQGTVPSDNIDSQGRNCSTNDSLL

| Compound | % isop (β1-AR [1]; CHO-β1-CRE-luciferase cells) | Pharmacological Outcome: CCE/IBS conformation (β1-AR [2]) | Pharmacological Outcome: SCE conformation (β1-AR [2]) | % Isoprenaline (β1-AR [3]; CHO-β1-CRE-SPAP cells) | % Isoprenaline (human β2-AR [4]) [%] | Kd (β1-AR [5]) [nM] | Kd (human β2-AR [6]) [nM] | β2-Selectivity (human β2-AR [6]) [fold] | EC50 (human β2-AR [4]) [nM] | EC50 (β1-AR [3]; CHO-β1-CRE-SPAP cells) [nM] | Log EC50 (β1-AR [1]; [7]) | Kd (human β2-AR [4]; [9]) [nM] | Log EC50 (human β2-AR [4]) | Evidence of SCE activation (β1-AR [2]) | Log EC50 (β1-AR [3]; CHO-β1-CRE-SPAP cells) | Log KD Secondary Conformation, CGP12177 as agonist (β1-AR [1]; [11]) | other results |
| --- | --- | --- | --- | --- | --- | --- | --- | --- | --- | --- | --- | --- | --- | --- | --- | --- | --- |
| C=CCc1ccccc1OCC(O)CNC(C)C (racemic) [Alprenolol, (RS)-1-(2-allylphenoxy)-3-(isopropylamino)propan-2-ol, reference compound] | 3.2 ± 0.8% | Agonist (biphasic) | Agonist (biphasic) | 56.7 ± 3.7% | – | – | – | – | – | – | – | – | – | – | – | – | % at EC501 (β1-AR [3]; % of the response occurring via first component, CHO-β1-CRE-SPAP cells): 62.5 ± 2.7% |
| C=CCOc1ccccc1OCC(O)CNC(C)C (racemic) [Oxprenolol, (RS)-1-[2-(allyloxy)phenoxy]-3-(isopropylamino)propan-2-ol, reference compound] | – | Agonist (biphasic) | Agonist (biphasic) | – | 40.1 ± 2.3 | – | – | – | – | – | – | – | – | – | – | – | – |
| CC(C)NCC(O)COc1cccc2[nH]ccc12 (racemic) [Pindolol, (RS)-1-[(1H -indol-4-yl)oxy]-3-(isopropylamino)propan-2-ol, reference compound] | 11.7 ± 1.4% | Agonist (biphasic) | Agonist (biphasic) | – | – | – | – | – | – | – | – | – | – | – | – | – | – |
| CC(C)(Cc1c[nH]c2ccccc12)NCC(O)COc1ccccc1C#N (stereo not drawn) [Bucindolol, 2-[2-hydroxy-3-[[2-(1H -indol-3-yl)-1,1-dimethyl-ethyl]amino]propoxy]benzonitrile, reference compound] | 23.7 ± 1.7% | Agonist (biphasic) | Agonist (biphasic) | 84.5 ± 2.4% | 70.3 ± 2.0 | 0.575 | 0.0513 | 11.2 | 0.2 | 0.759 | – | – | – | – | – | – | % at EC501 (β1-AR [1]; % of the response occurring via first component, CHO-β1-CRE-luciferase cells): 23.3 ± 2.4%; EC50 (β1-AR [1]; EC501 (log EC50 of first component), biphasic concentration response, CHO-β1-CRE-luciferase cells): 0.537 nM; EC50 (β1-AR [1]; EC502 (log EC50 of second component), biphasic concentration response, CHO-β1-CRE-luciferase cells): 57.5 nM |
| CC(C)(C)NC[C@H](O)COc1cccc2c1CCCC2=O [VL03, 5-[(2S)-3-(tert-butylamino)-2-hydroxypropoxy]-3,4-dihydro-2H -naphthalen-1-one] | – | High-affinity neutral antagonist | Low-affinity neutral antagonist | – | – | 5.13 | – | – | – | – | No response | 0.0468 | No response | None | No response | – | Schild slope (human β2-AR [4]; CGP12177 as agonist): 1.00 ± 0.03; Kd (human β2-AR [4]; [8]): 0.0759 nM; Schild slope (human β2-AR [4]; cimaterol as agonist): 0.99 ± 0.04; Kd (β1-AR [3]; Log KD Catecholamine conformation Cimaterol as Agonist, rightward shift of cimaterol response, CHO-β1-CRE-SPAP cells, Gaddum, or Stephenson (a)): 1.78 nM; Kd (β1-AR [3]; Log KD Secondary Conformation CGP12177 as Agonist, rightward shift of CGP12177 response, CHO-β1-CRE-SPAP cells): 562 nM; Schild slope (β1-AR [3]; cimaterol as agonist, CHO-β1-CRE-SPAP cells): 0.96 ± 0.05 |
| CC(C)(C)NC[C@@H](O)COc1cccc2c1CCC(=O)N2 [VL04, 5-[(2R)-3-(tert-butylamino)-2-hydroxypropoxy]-3,4-dihydro-1H -quinolin-2-one] | – | – | – | – | 55.1 ± 2.7 | – | – | – | – | – | – | – | – | – | – | – | – |
| COc1ccccc1OC[C@@H](O)CNC(C)C [VL05, (2S)-1-(2-methoxyphenoxy)-3-(propan-2-ylamino)propan-2-ol] | 9.7 ± 0.8% | Agonist | – | 62.3 ± 3.8% | 63.2 ± 3.2 | 24 | 12.3 | 1.9 | 3.8 | 5.01 | – | – | – | None | – | No shift 10 μM | Kd (β1-AR [1]): 10 nM; EC50 (β1-AR [1]; [10]): 64.6 nM; Log ratio of affinities (β1-AR [1]; CHO-β1-CRE-luciferase cells): >3 |
| COc1ccc(OCC(O)CNCCc2c[nH]c3ccccc23)cc1 (stereo not drawn) [VL06, 1-[2-(1H -indol-3-yl)ethylamino]-3-(4-methoxyphenoxy)propan-2-ol] | 2.7 ± 0.8% | Agonist | – | 53.6 ± 3.1% | 15.2 ± 1.2 | 1120 | 977 | 1.1 | 363 | 339 | – | 457 | – | None | – | No shift 10 μM | Kd (β1-AR [1]): 347 nM; EC50 (β1-AR [1]; [10]): 1410 nM; Log ratio of affinities (β1-AR [1]; CHO-β1-CRE-luciferase cells): >1.46; Kd (human β2-AR [4]; [8]): 1170 nM; Log ratio of affinities (human β2-AR [4]): 0.41 |
| Cc1cc(C)c(OC[C@@H](O)CNC(C)C)c(C)c1 [VL08, (2S)-1-(propan-2-ylamino)-3-(2,4,6-trimethylphenoxy)propan-2-ol] | – | No receptor interaction | No receptor interaction | – | – | – | 3240 | – | – | – | No response | 2090 | No response | None | No response | No shift 10 μM | Log KD (CGP12177 as Agonist) (human β2-AR [4]; [12]): No shift 10 μM; Log KD Secondary Conformation, CGP12177 as agonist (β1-AR [3]; [13]): No shift 10 μM; Log KD Catecholamine conformation Cimaterol as Agonist (β1-AR [3]; [14]): No shift 10 μM |
| O[C@H](CNCCc1c[nH]c2ccccc12)COc1ccc(F)cc1 [VL10, (2R)-1-(4-fluorophenoxy)-3-[2-(1H -indol-3-yl)ethylamino]propan-2-ol] | 14% and 13.8 ± 1.5% | Agonist | – | 67% and 66.9 ± 2.5% | 28.7 ± 2.0 | 186 | 89.1 | 2.1 | 39.8 | 18.6 | – | 37.2 | – | None | – | – | EC50 (β1-AR [1]; [10]): 155 nM; Log ratio of affinities (β1-AR [1]; CHO-β1-CRE-luciferase cells): 1.64; Kd (human β2-AR [4]; [8]): 138 nM; Log ratio of affinities (human β2-AR [4]): 0.57; Kd (β1-AR [3]): 117 nM |
| OCCOc1ccc(CNCCc2c[nH]c3ccccc23)cc1 [VL11, 2-[4-[[2-(1H -indol-3-yl)ethylamino]methyl]phenoxy]ethanol] | – | No receptor interaction | No receptor interaction | – | – | – | 8910 | – | – | – | No response | – | No response | None | No response | No shift 10 μM | Log KD (CGP12177 as Agonist) (human β2-AR [4]; [12]): No shift 10 μM; Log KD (Cimaterol as Agonist) (human β2-AR [4]; rightward shift of cimaterol response, Gaddum, or Stephenson (a)): No shift 10 μM; Log KD Secondary Conformation, CGP12177 as agonist (β1-AR [3]; [13]): No shift 10 μM; Log KD Catecholamine conformation Cimaterol as Agonist (β1-AR [3]; [14]): No shift 10 μM |
| C=CCc1ccccc1OCCNCCCOC [VL12, 3-methoxy-N -[2-(2-prop-2-enylphenoxy)ethyl]propan-1-amine] | – | No receptor interaction | No receptor interaction | – | – | – | 6760 | – | – | – | No response | 3720 | No response | None | No response | No shift 10 μM | Log KD Catecholamine conformation Cimaterol as Agonist (β1-AR [1]; rightward shift of cimaterol response, CHO-β1-CRE-luciferase cells, Gaddum, or Stephenson for partial agonists (a)): No shift at 10 μM; Log KD (CGP12177 as Agonist) (human β2-AR [4]; [12]): No shift 10 μM; Log KD Secondary Conformation, CGP12177 as agonist (β1-AR [3]; [13]): No shift 10 μM; Log KD Catecholamine conformation Cimaterol as Agonist (β1-AR [3]; [14]): No shift 10 μM |

Source: PMC12799587, “Predicting compounds that interact with the 2 known agonist-induced conformations of the human β1-adrenoceptor” (Molecular Pharmacology, 2025)
